Test results taken from patent US4362870A, “Selective opioid receptor alkylating agents” (priority 1981, dated 1982).
Like-named read-outs stand apart in the source and are kept apart here.

Experiments:
[1] = tested on: electrically stimulated guinea pig ileal longitudinal muscle; experiment: cells; type: cell-based; settings: for IC50 Ratio FNA/Control: agonist IC50 after FNA (2 × 10^-8, 30 min, 20 washes) / control
effects of morphine [2] = experiment: Duration of inhibitory effect on morphine (species not given); type: in vivo
From the text: (§1) The vertical bars represent 95% confidence intervals of the ED50 values.

morphine analgesia = experiment: Duration of inhibitory effect on morphine analgesia, mouse; type: in vivo; settings: HCl salt; 4.8 nmol/mouse intracebroventricular
Protocol: At 4.8 nmol/mouse (intracebroventricular) or at 5 mg/kg i.p. in the rat, the antagonist effects of FNA (as its HCl salt) lasted at least three days (FIG. 1). The vertical bars represent 95% confidence intervals of the ED50 values.

[3] = Toxic effects at a single dose; type: in vivo; settings: single dose which completely blocks morphine for at least three days
effects of morphine [4] = experiment: Duration of inhibitory effect on morphine, rat; type: in vivo; settings: HCl salt; 5 mg/kg i.p. in the rat
From the text: as §1

[5] = tested on: analgesic response of mice; experiment: Analgesic response of mice to FNA; type: in vivo, mouse
Protocol: FIG. 2 is a graphic representation of the analgesic response of mice to FNA.
The analgesic response of mice to FNA was tested.

[6] = tested on: electrically stimulated guinea pig ileal longitudinal muscle strip; experiment: Guinea pig ileum: morphine IC50 ratio before and after exposure to the test compound (Examples V-XIV); type: cell-based; settings: 30 min exposure, 20 washes
Protocol: Details of the assay are found in Rang, Br. J. PHarmacol., 22, 356 (1964).
of the electrically stimulated guinea pig ileal longitudinal muscle strip
(treated) exposure (30 min) of the ileal preparation to the test compound
(2 × 10^-8 M) followed by 20 washes are expressed as a ratio, […]

[7] = background statement; cited from earlier work
[8] = tested on: β-endorphin-induced stimulation of food intake; settings: prior report; cited from earlier work

## CSCC[C@H](NC(=O)[C@H](Cc1ccccc1)NC(=O)CNC(=O)[C@@H](C)NC(=O)[C@@H](N)Cc1ccc(O)cc1)C(N)=O [D-Ala^2 -- Met-- enkephlin- Amide]
[1]; after FNA (2 × 10^-8) incubated 30 minutes, washed 20 times, read-out: IC50 After FNA
  IC50: 29.1 nM
[1]
  IC50 Ratio FNA/Control: 6.9
[1]; control, before FNA, guinea pig ileum, read-out: IC50 Control
  IC50: 4.2 nM

## COC(=O)/C=C/C(=O)N[C@@H]1CC[C@@]2(O)[C@H]3Cc4ccc(O)c5c4[C@@]2(CCN3CC2CC2)[C@H]1O5 [FNA, fumarnaltrexamine]
[1]; FNA 2×10^-8 M, 30 minutes
  inhibition of agonist effects of nalorphine or pentazocine: did not inhibit the agonist effects of nalorphine or pentazocine
  inhibition of response to morphine and enkephalin: inhibited irreversibly
[1]; electrically stimulated guinea pig ileum, summary statement in description
  block of agonist effects of morphine, enkephalin, pentazocine and nalorphine (selectivity): irreversibly block the agonist effects of morphine or enkephalin but not the agonist effects of pentazocine or nalorphine
Effects of morphine [2]; single dose
  duration of complete block of the effects of morphine: at least three
Morphine analgesia
  duration of antagonist effects: at least three
[3]
  toxic effects: no toxic effects
Effects of morphine [4]
  duration of antagonist effects: at least three
[5]
  analgesia: reversible analgesia
  reversal of analgesia by its own antagonistic properties: not reversed by its own antagonistic properties

## CC(=O)/C=C/C(=O)N[C@@H]1CC[C@@]2(O)[C@H]3Cc4ccc(O)c5c4[C@@]2(CCN3CC2CC2)[C@H]1O5 [IX]
[6]; test compound 2 × 10^-8 M
  IC50 Ratio, morphine IC50 (treated)/morphine IC50 (control): 6.4

## C=CCN1CC[C@]23c4c5ccc(O)c4O[C@H]2[C@@H](O)C=C[C@H]3[C@H]1C5 [Nalorphine]
[1]; Cavia porcellus, 0.5 h, after FNA (2 × 10^-8) incubated 30 minutes, washed 20 times, read-out: IC50 After FNA
  IC50: 25.2 nM
[1]; Cavia porcellus, control, before FNA, guinea pig ileum, read-out: IC50 Control
  IC50: 28.1 nM
[1]
  IC50 Ratio FNA/Control: 0.9

## O=C(/C=C/C(=O)OCCc1ccccc1)N[C@@H]1CC[C@@]2(O)[C@H]3Cc4ccc(O)c5c4[C@@]2(CCN3CC2CC2)[C@H]1O5 [VIII]
[6]; test compound 2 × 10^-8 M
  IC50 Ratio, morphine IC50 (treated)/morphine IC50 (control): 12.8

## O=C(/C=C/C(=O)OCc1ccccc1)N[C@@H]1CC[C@@]2(O)[C@H]3Cc4ccc(O)c5c4[C@@]2(CCN3CC2CC2)[C@H]1O5 [VII]
[6]; test compound 2 × 10^-8 M
  IC50 Ratio, morphine IC50 (treated)/morphine IC50 (control): 3.4

## CCCOC(=O)/C=C/C(=O)N[C@@H]1CC[C@@]2(O)[C@H]3Cc4ccc(O)c5c4[C@@]2(CCN3CC2CC2)[C@H]1O5 [VI]
[6]; test compound 2 × 10^-8 M
  IC50 Ratio, morphine IC50 (treated)/morphine IC50 (control): 4.4

## CCOC(=O)/C=C/C(=O)N[C@@H]1CC[C@@]2(O)[C@H]3Cc4ccc(O)c5c4[C@@]2(CCN3CC2CC2)[C@H]1O5 [V]
[6]; test compound 2 × 10^-8 M
  IC50 Ratio, morphine IC50 (treated)/morphine IC50 (control): 2.8

## Oc1ccc2c3c1O[C@H]1[C@H](N=C=S)CC[C@@]4(O)[C@@H](C2)N(CC2CC2)CC[C@]314 [XIII]
[6]; test compound 2 × 10^-8 M
  IC50 Ratio, morphine IC50 (treated)/morphine IC50 (control): 2.3

## O=C(CI)N[C@@H]1CC[C@@]2(O)[C@H]3Cc4ccc(O)c5c4[C@@]2(CCN3CC2CC2)[C@H]1O5 [XII]
[6]; test compound 10^-6 M
  IC50 Ratio, morphine IC50 (treated)/morphine IC50 (control): 25.6

## C=CCN1CC[C@]23c4c5ccc(O)c4O[C@H]2[C@H](NC(=O)/C=C/C(=O)OC)CC[C@@]3(O)[C@H]1C5 [XIV]
[6]; test compound 10^-7 M
  IC50 Ratio, morphine IC50 (treated)/morphine IC50 (control): 6.4

## C=C(Cl)C(=O)N[C@@H]1CC[C@@]2(O)[C@H]3Cc4ccc(O)c5c4[C@@]2(CCN3CC2CC2)[C@H]1O5 [XI]
[6]; test compound 2 × 10^-8 M
  IC50 Ratio, morphine IC50 (treated)/morphine IC50 (control): 8.2

## C=CC(=O)N[C@@H]1CC[C@@]2(O)[C@H]3Cc4ccc(O)c5c4[C@@]2(CCN3CC2CC2)[C@H]1O5 [X]
[6]; test compound 2 × 10^-8 M
  IC50 Ratio, morphine IC50 (treated)/morphine IC50 (control): 1.9

## CC(C)C[C@H](NC(=O)[C@H](Cc1ccccc1)NC(=O)CNC(=O)CNC(=O)[C@@H](N)Cc1ccc(O)cc1)C(=O)O [enkephalin]
[7]
  hypotensive action: potent hypotensive agents

## C=CCN1CC[C@]23c4c5ccc(O)c4O[C@H]2C(=O)CC[C@@]3(O)[C@H]1C5 [naloxone, reference compound]
Effects of morphine [2]; tested 2 hours after administration
  antagonistic effect: its effect had already dissipated
[8]
  block of β-endorphin-induced stimulation of food intake: blocked
